# Test results taken from US20060258685A1, “Substituted pyrazolopyrimidines, methods for the production thereof, use of the same for controlling pathogenic fungi, and agents containing said compounds” (priority 2003, published 2006).
# Test system: Sphaerotheca fuliginea
# Experiment: Activity against mildew on cucumber leaves caused by Sphaerotheca fuliginea, protective application
# Assay type: in vivo
# Settings: 250 ppm active compound, sprayed to runoff, cucumber seedlings, assessed after 7 days, untreated plants 90% infected
# Experimental: The active compounds were separately prepared as a stock solution of 0.25% by weight of active compound in acetone or DMSO. 1% by weight of emulsifier Uniperol® EL (wetting agent having emulsifying and dispersing action based on ethoxylated alkylphenols) was added to this solution, and the solution was diluted with water to the desired concentration. Leaves of potted cucumber seedlings of the cultivar “Chinese snake” were, at the cotyledon stage, sprayed to runoff point with an aqueous suspension having the concentration of active compound stated below. 20 hours after the spray coating had dried on, the plants were inoculated with an aqueous spore suspension of mildew of cucumber (Sphaerotheca fuliginea). The plants were then cultivated in a greenhouse at temperatures between 20 and 24° C. and 60 to 80% relative atmospheric humidity for 7 days. The extent of the mildew development was then determined visually in % infection of the cotyledon area.
structure (smiles),measurement,value
"CC1CCN(c2c(-c3c(F)cc(F)cc3F)c(Cl)nc3c(Cl)cnn23)CC1 [III-1, 3,5-Dichloro-7-(4-methylpiperidin-1-yl)-6-(2,4,6-trifluorophenyl)-pyrazolo[1,5-a]pyrimidine]","extent of the mildew development, determined visually in % infection of the cotyledon area",no infection
